The molecules below were run on PK1 neuroblastoma cells exposed to TPrP (assay: cells). Settings: Neuroblastoma cell, 96 h, read-out: TPrP EC50.
Cc1ccc(-c2cn(-c3ccccc3)nn2)cc1S(=O)(=O)N1CCOCC1 [SR-30084, 4-((2-Methyl-5-(1-phenyl-1H-1,2,3-triazol-4-yl)phenyl)sulfonyl)morpholine] showed an EC50 of 30 nM.
Cc1ccc(-c2nnc(-c3ccccc3)[nH]2)cc1S(=O)(=O)NC1CCC2(CC1)OCCO2 [SR-32764, 2-Methyl-5-(5-phenyl-4H-1,2,4-triazol-3-yl)-N-(1,4-dioxaspiro[4.5]decan-8-yl)benzenesulfonamide] showed an EC50 greater than 1500 nM.
In the case of Cc1ccc(-c2nnc(C3CCCCC3)[nH]2)cc1S(=O)(=O)N1CCOCC1 [SR-28565, 4-((5-(5-Cyclohexyl-4H-1,2,4-triazol-3-yl)-2-methylphenyl)sulfonyl)morpholine], the EC50 is reported as 150 nM.
With Cc1ccc(-c2ccnc(-c3ccccc3)c2)cc1S(=O)(=O)N1CCOCC1 [SR-28984, 4-((2-Methyl-5-(2-phenylpyridin-4-yl)phenyl)sulfonyl)morpholine] the EC50 was 30 nM.
Cc1ccc(-c2ccnc(Cl)c2)cc1S(=O)(=O)N1CCNCC1 [SR-35422, 1-((5-(2-Chloropyridin-4-yl)-2-methylphenyl)sulfonyl)piperazine] showed an EC50 of less than 5 nM.
For O=S(=O)(c1cc(-c2nnc(-c3ccccc3)[nH]2)ccc1Cl)N1CCOCC1 [SR-26525, 4-((2-Chloro-5-(5-phenyl-4H-1,2,4-triazol-3-yl)phenyl)sulfonyl)morpholine], the EC50 was 100 nM.
Cc1ccc(-c2nnc(-c3ccccc3)[nH]2)cc1S(=O)(=O)N1CCC(O)CC1 [SR-32045, 1-((2-Methyl-5-(5-phenyl-4H-1,2,4-triazol-3-yl)phenyl)sulfonyl)piperidin-4-ol] showed an EC50 greater than 1500 nM.
Cc1ccc(-c2nnc(-c3ccccc3)[nH]2)cc1S(=O)(=O)N1CCC2(CCCO2)CC1 [SR-32925, 8-((2-Methyl-5-(5-phenyl-4H-1,2,4-triazol-3-yl)phenyl)sulfonyl)-1-oxa-8-azaspiro[4.5]decane] gave an EC50 greater than 1500 nM.
Molecule Cc1ccc(-c2nnc(-c3ccccc3)[nH]2)cc1S(=O)(=O)N1CCN(C2COC2)CC1 [SR-32324, 1-((2-Methyl-5-(5-phenyl-4H-1,2,4-triazol-3-yl)phenyl)sulfonyl)-4-(oxetan-3-yl)piperazine] has an EC50 of 900 nM.
C[C@@H]1CN(S(=O)(=O)c2cc(-c3nnc(-c4ccccc4)[nH]3)ccc2C(F)(F)F)C[C@H](C)O1 [SR-30786, (cis)-2,6-dimethyl-4-((5-(5-phenyl-4H-1,2,4-triazol-3-yl)-2-(trifluoromethyl)phenyl)sulfonyl)morpholine] was tested, and the EC50 was greater than 1200 nM.
With O=S(=O)(c1cc(-c2nnc(-c3ccccc3)[nH]2)ccc1C1CC1)N1CCOCC1 [SR-29784, 4-((2-Cyclopropyl-5-(5-phenyl-4H-1,2,4-triazol-3-yl)phenyl)sulfonyl) morpholine] the EC50 was 600 nM.
Cc1ccc(-c2nnc(-c3ccccc3)[nH]2)cc1S(=O)(=O)N1CCCC2(C1)OCCO2 [SR-33045, 7-((2-Methyl-5-(5-phenyl-4H-1,2,4-triazol-3-yl)phenyl)sulfonyl)-1,4-dioxa-7-azaspiro[4.5]decane] was tested, and the EC50 was greater than 1500 nM.
With Cc1ccc(-c2nnc(-c3ccc(Br)cc3)[nH]2)cc1S(=O)(=O)N1CCOCC1 [SR-28144, 4-((5-(5-(4-Bromophenyl)-4H-1,2,4-triazol-3-yl)-2-methylphenyl)sulfonyl) morpholine] the EC50 was 40 nM.
Cc1ccc(-c2nnc(C)c3ccccc23)cc1S(=O)(=O)N1CCOCC1 [SR-26424, 4-((2-Methyl-5-(4-methylphthalazin-1-yl)phenyl)sulfonyl)morpholine] gave an EC50 greater than 320 nM.
For Cc1c(F)cc(-c2nnc(-c3ccccc3)[nH]2)cc1S(=O)(=O)N1CCN(CCO)CC1 [SR-33604, 2-(4-((3-Fluoro-2-methyl-5-(5-phenyl-4H-1,2,4-triazol-3-yl)phenyl)sulfonyl)piperazin-1-yl)ethan-1-ol], the EC50 was 90 nM.
With Cc1ccc(-c2c[nH]cc2-c2ccccc2)cc1S(=O)(=O)N1CCOCC1 [SR-29285, 4-((2-Methyl-5-(4-phenyl-1H-pyrrol-3-yl)phenyl)sulfonyl)morpholine] the EC50 was greater than 1200 nM.
With Cc1ccc(-c2nnc(-c3ccccc3)[nH]2)cc1S(=O)(=O)N1CCC(CCO)CC1 [SR-33725, 2-(1-((2-Methyl-5-(5-phenyl-4H-1,2,4-triazol-3-yl)phenyl)sulfonyl)piperidin-4-yl)ethan-1-ol] the EC50 was greater than 1500 nM.
Cc1ccc(-c2cnn(CCN3CCOCC3)c2)cc1S(=O)(=O)N1CCOCC1 [SR-24581] was tested, and the EC50 was 100 nM.
With Cc1ccc(-c2nnc(-c3ccccc3)[nH]2)cc1S(=O)(=O)NCc1cncnc1 [SR-33344, 2-Methyl-5-(5-phenyl-4H-1,2,4-triazol-3-yl)-N-(pyrimidin-5-ylmethyl)benzene sulfonamide] the EC50 was 650 nM.
Cc1ccc(NCc2ccncc2)cc1S(=O)(=O)N1CCOCC1 [SR-25464, 4-Methyl-3-(morpholinosulfonyl)-N-(pyridin-4-ylmethyl)aniline] gave an EC50 greater than 320 nM.
In the case of O=S(=O)(c1cc(-c2nnc(-c3ccccc3)[nH]2)ccc1OC(F)(F)F)N1CCOCC1 [SR-31545, 4-((5-(5-Phenyl-4H-1,2,4-triazol-3-yl)-2-(trifluoromethoxy)phenyl)sulfonyl) morpholine], the EC50 is reported as greater than 1500 nM.
Molecule COc1ccc(-c2nnc(-c3ccccc3)[nH]2)cc1S(=O)(=O)N1CCOCC1 [SR-26624, 4-((2-Methoxy-5-(5-phenyl-4H-1,2,4-triazol-3-yl)phenyl)sulfonyl) morpholine] has an EC50 of 260 nM.
With Cc1ccc(-c2nnc(-c3ccccc3)[nH]2)cc1S(=O)(=O)N1CCC2(CC1)OCCO2 [SR-32705, 8-((2-Methyl-5-(5-phenyl-4H-1,2,4-triazol-3-yl)phenyl)sulfonyl)-1,4-dioxa-8-azaspiro[4.5]decane] the EC50 was greater than 1500 nM.
C#CCCC(=O)CCn1cc(-c2ccc(C)c(S(=O)(=O)N3CCN(CCc4ccncc4)CC3)c2)cn1 [SR-35186, 1-(4-(4-Methyl-3-((4-(2-(pyridin-4-yl)ethyl)piperazin-1-yl)sulfonyl)phenyl)-1H-pyrazol-1-yl)hept-6-yn-3-one] gave an EC50 of less than 5 nM.
Cc1ccc(-c2ccnc(Cl)c2)cc1S(=O)(=O)N1CCN(CC(F)F)CC1 [SR-35124, 1-((5-(2-Chloropyridin-4-yl)-2-methylphenyl)sulfonyl)-4-(2,2-difluoroethyl) piperazine] showed an EC50 greater than 1500 nM.
For Cc1cc(C)c(S(=O)(=O)N2CCN(CCO)CC2)cc1-c1nnc(-c2ccccc2)[nH]1 [SR-34778, 2-(4-((2,4-Dimethyl-5-(5-phenyl-4H-1,2,4-triazol-3-yl)phenyl)sulfonyl)piperazin-1-yl)ethan-1-ol], the EC50 was 13 nM.
In the case of Cc1ccc(-c2nnc(-c3ccccc3)[nH]2)cc1S(=O)(=O)N1CCN(CCO)CC1 [SR-32124], the EC50 is reported as 15 nM.
Cc1ccc(-c2ccnc(Cl)c2)cc1S(=O)(=O)N1CCN(CCF)CC1 [SR-35017, 1-((5-(2-Chloropyridin-4-yl)-2-methylphenyl)sulfonyl)-4-(2-fluoroethyl) piperazine] gave an EC50 of 900 nM.
For Cc1ccc(-c2cnn(C)c2)cc1S(=O)(=O)N1CCOCC1 [SR-24578], the EC50 was 100 nM.
Cc1ccc(-c2nnc(-c3ccccc3)[nH]2)cc1S(=O)(=O)N1C2CCC1COC2 [SR-32704, 8-((2-Methyl-5-(5-phenyl-4H-1,2,4-triazol-3-yl)phenyl)sulfonyl)-3-oxa-8-azabicyclo[3.2.1]octane] was tested, and the EC50 was 800 nM.
Molecule Cc1ccc(-c2cnn(-c3ccccc3)c2)cc1S(=O)(=O)N1CCOCC1 [SR-28925, 4-((2-Methyl-5-(1-phenyl-1H-pyrazol-4-yl)phenyl)sulfonyl)morpholine] has an EC50 of 20 nM.

Reference: US20240124466A1, “COMPOUNDS AND USE THEREOF FOR TREATMENT OF NEURODEGENERATIVE, DEGENERATIVE AND METABOLIC DISORDERS” (VOVA IDA THERAPEUTICS, INC., priority 2020, published 2024)
